In article PMC3404088, “Development of a Small D-Enantiomeric Alzheimer’s Amyloid-β Binding Peptide Ligand for Future In Vivo Imaging Applications” (PLoS ONE, 2012):
Square brackets hold non-standard residues; d marks the D form. Peptide text beside a SMILES is read from it. * marks the point of attachment. 5FAM = O=C1OC2(c3ccc(O)cc3Oc3cc(O)ccc32)c2ccc(C(=O)*)cc21

How the values were obtained:
Aβ1–42 fibrils [1] = biological target: T1, Aβ1–42 fibrils (Homo sapiens, UniProt P05067); assay: ELISA, compound binding to Aβ1–42 fibrils; conditions: for binding value, binding Aβ1–42 fibrils: optical density after pNPP incubation
T1 construct: Aβ1–42 was dissolved in hexafluoroisopropanol (HFIP)
Procedure: (§1) Aβ1–42 peptide film was prepared from lyophilized powder (Bachem). The powder was reconstituted in HFIP to a final concentration of 1 mM, sonicated for 15 min at room temperature (RT), agitated overnight (ON), and aliquoted into non-siliconized microcentrifuge tubes (12 µl corresponding to 55 µg). The HFIP was evaporated under a stream of argon. The resulting peptide film was vacuum dried for 10 min and stored at -80°C. For direct use as peptide film, an aliquot of Aβ1–42 peptide film was reconstituted with 0.54% dimethylsulphoxide (DMSO) in phosphate buffered saline (PBS) to obtain a final concentration of 10 µg/ml and then used for the ELISA as described below. To prepare fibrils, 55 µg aliquot of peptide film was dissolved in 55 µl of 50 mM Tris-HCl, pH 7.4 and incubated at 37°C for five days. Next, the sample was centrifuged (10’000 rpm for 5 min) and the pellet was diluted in 50 mM Tris-HCl, pH 7.4.
(§2) Aβ1–42 peptide preparations were diluted in 0.05 M bicarbonate-carbonate buffer pH 9.6, to the final concentration of 10 µg/ml and coated onto ELISA plates (MaxiSorp, Nunc). After blocking (PBS; 0.05% Tween; 1% BSA), plates were incubated with 2- or 3-fold dilutions of D-compounds (starting concentration: 10 µg/ml) and incubated for 2 h at 37°C. Plates were then washed and incubated for 2 h at 37°C with the detection antibody Rabbit-a-fluorescein isothiocyanate-AP (Sigma; 1∶10’000 dilution) followed by the incubation for 2.5 h at room temperature (RT) with 1 mg/ml of phosphatase substrate (pNPP, Sigma). The absorbance signal was read at 405 nm wavelength using a Tecan plate reader (Tecan Group Lt, Männedorf, Switzerland).
(§3) ELISA plates (MaxiSorp, Nunc) were coated with anti-Aβ antibody 6E10 (Covance) at a concentration of 5 µg/ml. Either monomeric Aβ1–42 peptide film (mainly monomeric) or Aβ1–42 fibrils, which were prepared as described above, were diluted in PBS to the final concentration 10 µg/ml and mixed with 10-fold dilutions of D-peptide compounds in Eppendorf tubes (starting concentration of D-peptide compounds: 10 µg/ml). The tubes were incubated for 2 h at 37°C. Next, samples were distributed onto the ELISA plate and kept for 2 h at 37°C. Plates were washed and incubated for 2 h at 37°C with the detection antibody Rabbit-a-fluorescein isothiocyanate-AP (Sigma; 1∶10′000 dilution) following the incubation overnight (ON) at RT with 1 mg/ml of phosphatase substrate (pNPP, Sigma). The absorbance signal was read at 405 nm wavelength using the Tecan plate reader (Tecan Group Ltd, Männedorf, Switzerland).
(§4) To verify the SPR results, ELISA was employed to assay the interaction of the ACI-80 derivatives ACI-80-Kϕ, ACI-81-Kϕ, ACI-82-Kϕ, ACI-83-Kϕ, ACI-84-Kϕ, ACI-85-Kϕ, ACI-86-Kϕ, ACI-87-Kϕ, [^19F]-ACI-87-Kϕ, ACI-88-Kϕ, [^19F]-ACI-88-Kϕ, ACI-89-Kϕ, [^19F]-ACI-89-Kϕ) with Aβ1–42 fibrils and Aβ peptide film in solution containing mostly monomers and smaller oligomers (Table 4). To avoid any bias by possible conformational influences the ELISA has been carried out in two versions, once with immobilized antibody and once with immobilized Aβ1–42 as described in the methods section. Both assays yielded similar results and confirmed each other. […] Panels A and B in Figure 2 show the results for binding to Aβ1–42 fibrils and panels C and D in Figure 2 show the results for binding to freshly prepared Aβ1–42 peptide film, which contains mostly monomeric Aβ. In Table 4, the performance of the peptides is expressed relative to that of ACI-80-Kϕ.

Aβ1–42 fibrils [2] = biological target: T1, Aβ1–42 fibrils; assay: SPR single cycle experiments (Biacore T100), heterogeneous ligand model; type: binding; set-up: Rmax1 / Rmax2 / k off2: unit not given here; conditions: PBS pH 7.4, 25°C, 30 µl/min
Procedure: Aβ1–42 fibrils were prepared as described above. Thereafter, the sample was centrifuged for 10 min at 16000×g, the supernatant discarded and this procedure repeated for 3 times. Formation of fibrils was confirmed by a standard Thioflavin-T fluorescence assay. Aβ1–42 fibrils were covalently immobilized on a CM5 sensor chip via amine coupling. Prior to immobilization of Aβ1–42 fibrils the sample was centrifuged and fibrils resuspended in 10 mM sodium acetate buffer pH 4.0. Flow cell sensor surfaces were activated with a freshly prepared solution of 0.2 M 1-ethyl–3-(3-dimethylaminopropyl)-carbodiimide (EDC) and 0.05 M N-hydroxysuccinimide (NHS) at a constant flow rate of 10 µl/min for 420 s. Aβ1–42 fibrils (∼ 110 µM monomeric Aβ1–42) were injected for 600 s with a flow rate of 10 µl/min. Deactivation of the surface was performed by injection of 1 M ethanolamine-HCl pH 8.5 at the same flow rate and duration as in the activation step. In the reference cells the deactivation step was performed directly after the activation step. All SPR experiments were performed on a Biacore T100 system with series S CM5 sensor chips at 25°C. The system was run with the Biacore T100 Control Software Version 1.1.1. PBS (10 mM sodium phosphate buffer pH 7.4, 137 mM NaCl, 2.7 mM KCl) was chosen as running buffer (as previously during fibril formation) in order to minimize alterations of fibril organization. All buffers were sterile filtered (0.22 µm). After each docking of a sensor chip the detector was normalized with BIAnormalizing solution (70% glycerol, GE Healthcare) to compensate for slight differences in detector responses of individual sensor chips. For all interaction analyses the Type 1 reagent rack was used. Siliconized sample vials were used with their corresponding rubber caps (Type 2, GE Healthcare) to minimize evaporation effects. Throughout all runs the flow rate was set to 30 µl/min. All interaction studies were performed in single-cycle mode. Here, five different concentrations of analyte were passed through a reference cell and subsequently through flow cells with immobilized ligand within the same binding cycle for 60 seconds, starting with the lowest concentration. Successive injections were performed in the order of increasing concentrations. Each following concentration was a fivefold increase of the previous. The lowest analyte concentration was chosen to be 100 nM and therefore the following were 500, 2500, 12500 and 62500 nM. Biacore data were evaluated using BiaEvaluation 4.1.1 (GE Healthcare) and Biacore T100 Evaluation Software (GE Healthcare). Obtained binding data with compounds were double referenced. This was achieved by collecting the data in dual-channel mode with a reference flow cell connected upstream of the flow cell with immobilized Aβ1–42 fibrils and the subtraction of the obtained binding responses with a blank buffer injection (PBS).

[3] = Analysis of ACI-80 stability: N-terminal glutamine vs pyroglutamate content by HPLC/ESI-MS; type: physicochemical; conditions: solid, freshly synthesized and untreated, HPLC/ESI-MS
Procedure: In solution, N-terminal glutamine peptides such as D1 are prone to convert into N-terminal pyroglutamate species: Gln-SHYRHISPAQV → Pyr-SHYRHISPAQV. Therefore, the stability of solid ACI-80, solid ACI-80-Kϕ (ϕ: fluorescein isothiocyanate, covalently linked to the peptide via a lysine (K)) and [^127I]-ACI-80 in solution was investigated by JPT Peptide Technologies GmbH, Berlin, Germany using HPLC/ESI-MS whereby the relative content of N-terminal Gln peptide and N-terminal Pyr peptide was assessed.
An important observation during initial compound stability characterization experiments was the partial conversion of the N-terminal glutamine of [^127I]-ACI-80 into pyro-glutamate. It is known that peptides with an N-terminal glutamine are prone to conversion of this residue into a pyroglutamate. Therefore, the composition of freshly synthesized and untreated ACI-80 and ACI-80-Kϕ as well as [^127I]-ACI-80 after iodination were investigated. […] It was observed that freshly synthesized ACI-80 and ACI-80-Kϕ contained only minor fractions of pyroglutamic acid while about one third of [^127I]-ACI-80 in solution already converted into N-terminal pyroglutamate species.

Aβ1–42 monomers = biological target: T2, Aβ1–42 monomers (Homo sapiens, UniProt P05067); assay: ELISA, compound binding to Aβ1–42 peptide film (predominantly monomers); conditions: 10 µg/ml compound; for binding value, binding Aβ1–42 monomers: optical density after pNPP incubation
T2 construct: Aβ1–42 peptide film was prepared from lyophilized powder (Bachem); purchased Bachem
Procedure: as §1, §2, §3, §4

[4] = biological target: T3, Aβ plaques in brain sections of transgenic APP (V717I) x PS1 (A246E) mice (Homo sapiens, UniProt P05067); assay: Ex vivo staining of mouse brain slices by FITC labeled compounds
T3 construct: triple image overlay of respective stains reveal that the ϕ-compounds identify plaques; from tissue; host or cells: brain cryosections of APP (V717I) x PS1 (A246E) transgenic mice
Procedure: In vitro tissue section staining was performed according to previously described protocols with slight modifications. Mouse brains were obtained from male transgenic (tg) APP (London mutation V717l) x PS1 (A246E) mice aged 13–21 months and from female wild type (wt) mice aged 9–10 months. The mice were anesthetized and transcardially perfused with saline. The brains were removed and snap frozen. 10 µm thick sagittal cryostat sections through the whole mouse brain were produced and mounted onto glass slides. ϕ-labeled compounds were applied to investigate binding. Thus, the slides were thawed, washed in PBS and fixed in 4% paraformaldehyde (20 min at RT) just before incubation with ϕ-labeled compounds. One series of sections was treated only with fluorescent compounds (0.01 mg/ml, incubation time 2 h) while another series of sections were incubated with anti-Aβ antibody 6E10 at 1∶500 dilution (SIG-39320, Covance; final antibody concentration was 2 µg/ml) in addition to ϕ-labeled compounds (0.01 mg/ml). The slices were washed in PBS. The sections incubated with ϕ-labeled compound and 6E10 antibody were further incubated for 2 h at RT with Goat-anti-Mouse IgG1– AlexaFluor 555 (A21127, Invitrogen, 1∶1000 dilution) and washed with PBS. Finally, all sections were counterstained with 4’–6-Diamidino-2-phenylindole (DAPI, 32670, Sigma, incubation 5 min at RT) for the visualization of cell nuclei. The slides were mounted using Prolong Gold Antifade mounting medium (P36930, Invitrogen) and coverslipped.
The tissues were analyzed using a fluorescent Zeiss Axioscope 2 Plus microscope using the AxioVision 4 image analysis software.
A further series of slices was stained using a primary anti-fluorescein isothiocyanate antibody combined with alkaline phosphatase reaction for visualization of ϕ-labeled peptides. Briefly, the sections were treated with blocking solution (10% normal goat serum (NGS), 0.25% Triton X-100 in PBS for 1 h at RT) and incubated with primary antibody (rabbit-anti-FITC; Invitrogen) at a dilution of 1∶500. The sections were then washed and incubated for 2 h at RT with the secondary antibody goat-anti-rabbit-alkaline phosphatase (Sigma) at a dilution of 1∶100. After washing, the slides were incubated with BCIP/NBT substrate (Sigma) for 3 min, washed, dehydrated and mounted using Eukitt mounting medium.

[5] = 10 µg/ml compound, average of two or three experiments
[6] = average of two or three experiments

In the case of `CC[C@@H](C)[C@@H](NC(=O)[C@@H](Cc1c[nH]cn1)NC(=O)[C@@H](CCCNC(=N)N)NC(=O)[C@@H](Cc1ccc(O)cc1)NC(=O)[C@@H](Cc1c[nH]cn1)NC(=O)[C@@H](CO)NC(=O)[C@H](N)CCC(N)=O)C(=O)N[C@H](CO)C(=O)N1CCC[C@@H]1C(=O)N[C@H](C)C(=O)N[C@H](CCC(N)=O)C(=O)N[C@@H](C(=O)N[C@H](CCCCNC(=O)c1ccc2c(c1)C(=O)OC21c2ccc(O)cc2Oc2cc(O)ccc21)C(=O)O)C(C)C` [ACI-80-Kϕ] (H-[dQ][dS][dH][dY][dR][dH][dI][dS][dP][dA][dQ][dV][dK](5FAM)-OH; C-terminus assumed), the “binding value, binding Aβ1–42 fibrils” value (Aβ1–42 fibrils [1]; [5]) is reported as 0.90, the Rmax2 (Aβ1–42 fibrils [2]) is reported as 43.7 and the “k off1” value (Aβ1–42 fibrils [2]) is reported as 0.0252. The “k off2” value (Aβ1–42 fibrils [2]) was 1.58, the “k on1” value (Aβ1–42 fibrils [2]) was 469 and the “k on2” value (Aβ1–42 fibrils [2]) was 1.37e4. For the same molecule, the Rmax1 (Aβ1–42 fibrils [2]; global fit of three lowest responding concentrations) was 12.2, the “Identified amino acid at the N-terminal position: glutamine” value ([3]; relative content of N-terminal Gln peptide) was >94.4% and the “Identified amino acid at the N-terminal position: pyroglutamate” value ([3]; relative content of N-terminal Pyr peptide) was <5.6%. For the same molecule, the “binding value, binding Aβ1–42 monomers” value (Aβ1–42 monomers; [6]) was 0.49.

For “PSHYRHISPAQKK[^19F]ϕ [[^19F]-ACI-89-Kϕ, fluorinated ϕ-labeled ACI-89]”, the “ELISA binding to Aβ1–42” value (Aβ1–42 fibrils [1]) was “bound well to Aβ1–42 fibrils”, the “binding value, binding Aβ1–42 fibrils” value (Aβ1–42 fibrils [1]; 10 µg/ml compound, value of one single experiment only) was “*1.86” and the “staining / recognition of Aβ plaques” value ([4]; 0.01 mg/ml ϕ-labeled compound, 2 h, 10 µm cryostat sections, fluorescence microscopy) was “readily recognized amyloid plaques”. The “overlay with 6E10 anti-Aβ staining” value ([4]; co-staining with 6E10 (2 µg/ml) and DAPI, triple overlay) was “good overlap with 6E10 Aβ staining”, the “staining pattern” value ([4]; fluorescence microscopy) was “more diffuse and comparable to the staining of 6E10 Aβ antibody” and the “binding value, binding Aβ1–42 monomers” value (Aβ1–42 monomers; value of one single experiment only) was “*1.19”.

For “ZSFYRHISPAQVKϕ [ACI-84-Kϕ, ϕ-labeled ACI-80 derivative, Q1Z and H3F]”, the “ELISA binding to Aβ1–42” value (Aβ1–42 fibrils [1]) was “reduced”, the “% binding relative to ACI-80-Kϕ, Aβ1–42 fibrils” value (Aβ1–42 fibrils [1]; 10 µg/ml compound, ACI-80-Kϕ = 100) was 64% and the “binding value, binding Aβ1–42 fibrils” value (Aβ1–42 fibrils [1]; [5]) was 0.58. The “% binding relative to ACI-80-Kϕ, Aβ1–42 monomers” value (Aβ1–42 monomers; ACI-80-Kϕ = 100) was 63% and the “binding value, binding Aβ1–42 monomers” value (Aβ1–42 monomers; [6]) was 0.31.
